Where two headings read alike, the source gives them in different places.
Key:
GGTase-I = target: T1, GGTase-I (Rattus norvegicus, UniProt P53610+Q04631); assay: In vitro GGTase-I enzyme assay (IC50, kinetics); format: biochemical
T1 construct: purchased JENA BIOSCIENCE
Description: The GGTase-I assay was carried out using RhoA as a substrate protein, GGTase-I (JENA Bioscience) and [3H]geranylgeranyl pyrophosphate. Incubation was for 30 min at 37° C. GGTase-II (or RabGGTase) assay was carried out using YPTI as a substrate protein, GGTase-II (Calbiochem, San Diego, Calif.) plus REP1 (Calbiochem) and [3H]geranylgeranyl pyrophosphate. Incubation was for 30 min at 37° C. FIGS. 20D-20F show the three dimensional structure of GGTase I (D), FTsse (E) and GGTase II (F) which can be obtained from X-ray diffraction studies of protein crystals.
GGTase-I and FTase activities were determined by following the incorporation of radiolabeled isoprenoid [^3H]-geranylgeranyl or [^3H]-farnesyl into substrate proteins. FTase or GGTase-I (50 nM) were used to initiate reactions containing 0.4 μM of [^3H]-FPP or 0.5 μM of [^3H]-GGPP and 2 μM of MBP-tagged substrates (K-Ras4B for FTase; RhoA for GGTase-I) in 20 μl of buffer {50 mM Tris-HCl (pH 7.5), 10 mM MgCl2, […] and 5 mM DTT}. Inhibitors were added at the indicated concentrations. The final DMSO concentration was 2.5% for all samples.
Reactions were carried out for 10 min at 30° C. The reaction mixture was spotted onto a filter paper, treated with 10% trichloroacetic acid (TCA) followed by ethanol and acetone washing. The filter was counted using a scintillation counter. Kinetic assays in which the GGPP concentration was varied employed fixed concentrations of GGTase-I and RhoA, and reactions were carried out for 5 min. Similarly, fixed concentrations of GGTase-I and GGPP were used when the amount of RhoA was varied.

Jurkat cells = assay: Jurkat cell growth inhibition; format: cell-based, human
Description: In Table 4 in cell GI50 values for the growth inhibition of Jurkat cells are reported. The GI50 value is the concentration of a test compound needed to produce 50% growth inhibition in the cell type listed. In Table 4 the isolated yield of each synthetic step for the synthesis of corresponding compounds are also reported.
Panc-1 cells (Pancreatic cancer cell line) and Jurkat cells (T-cell leukemia) were treated with 12.5 μM of P5-H6 or 12.5 μM of mP5-H6a for 72 hours. The cell number was counted as described in Example 5.
(§1) Cell viability was determined by Cell Counting Kit-8 (CCK-8, Dojindo, Kumamoto, Japan) as described previously (31). Cell viability was calculated relative to the DMSO control. Cell cycle profile was analyzed by flow cytometry as described previously (32).

K562 cells = assay: K562 cell growth inhibition; format: cell-based, human
Description: K562 cells are a cell line of human erythroleukemia cells. The K562 cells were treated with P3-E5, P5-H6 or GGTI-298 (a known GGTI compound illustrated in FIG. 27) for 72 hours and then cell number was counted using cell counting kit-8 (Dojindo, Gaithersburg, Md.). Cell viability relative to the DMSO control and the known GGTI compound is plotted in FIG. 23.
as §1

MCF10a = MCF10a cell growth inhibition; format: cell-based; settings: Tables 8-15, no unit printed there
Excerpt: (§2) In FIG. 9-24 in vitro IC50 values for the GGTase I activity are reported. In Tables 7-15 in cell GI50 values for the growth inhibition of a variety of cancer cell lines (e.g., Jurkat, K562, MDA-MB-231, BT474, MCF7, MiaPaCa2, Aspc-1, Panc-1, Capan-2, CFpac-1, and MCF10a) are reported.

MCF7 = MCF7 cell growth inhibition; format: cell-based, human; settings: Homo sapiens, MCF7, Tables 8-15; no unit printed there
Description: as §2, §1

[1] = Tables 3, 5, 7, read-out: In vitro (enzyme assay) IC50, GGTase I
[2] = Tables 8-15, no unit printed there (Table 7 head: μM unless otherwise specified), read-out: In vitro (GGTase I IC50)
[3] = Homo sapiens, Jurkat, Tables 4, 6, 7, read-out: Jurkat cell GI50
[4] = Homo sapiens, Jurkat, Tables 8-15, no unit printed there, read-out: Jurkat GI50
[5] = Homo sapiens, K562, Tables 8-15, no unit printed there
[6] = Tables 8-15, no unit printed there, read-out: Jurkat GI50
[7] = Tables 8-15, no unit printed there
[8] = Tables 4, 6, 7, read-out: Jurkat cell GI50

Row | SMILES | IC50 (GGTase-I; [1]) | IC50 (GGTase-I; [2]) | GI50 (Jurkat cells; [3]) | GI50 (Jurkat cells; [4]) | GI50 (K562 cells; [5]) | further results
1 | COC(=O)[C@H](Cc1ccccc1)NC(=O)C1=C[C@@H](C(C)(C)C)N(S(=O)(=O)c2ccccc2C)[C@H]1c1ccc(Cl)cc1 [P61-A04] | > 50 µM | > 50 µM | 19 µM | 19 µM | 14 µM | –
2 | COC(=O)[C@H](Cc1ccccc1)NC(=O)C1=C[C@@H](C(C)(C)C)N(S(=O)(=O)c2ccccc2C)[C@H]1c1ccc(Cl)cc1 [P61A5] | – | – | – | – | – | GI50 (Jurkat cells; [6]): 10.5 µM; GI50 (K562 cells; [7]): 17 µM
3 | CC(C)(C)[C@@H]1C=C(C(=O)N[C@@H](Cc2ccccc2)C(N)=O)[C@H](c2ccc(Cl)c(Cl)c2)N1S(=O)(=O)c1c(Cl)cccc1Cl [P61-D10] | – | – | – | – | – | GI50 (Jurkat cells; [8]): 5.28 µM; GI50 (Jurkat cells; [6]): 5.28 µM; GI50 (K562 cells; [7]): 3.67 µM
4 | CC(C)(C)[C@@H]1C=C(C(=O)O)[C@H](c2ccc(Cl)cc2)N1S(=O)(=O)c1c(Cl)cccc1Cl | – | 4.4 µM | – | 2.76 µM | 8.26 µM | –
5 | Cc1ccccc1S(=O)(=O)N1C(c2cccc(Cl)c2)C(C(=O)N[C@@H](CC(C)C)C(N)=O)=CC[C@H]1c1ccc(Cl)cc1 (stereo partly shown) [drawing 214] | – | – | – | – | – | GI50 (Jurkat cells; [6]): 6.1 µM; GI50 (MCF10a): > 20 µM
6 | Cc1ccccc1S(=O)(=O)N1C(c2cccc(Cl)c2)C(C(=O)N[C@@H](CC(C)C)C(N)=O)=CC[C@H]1c1ccc(Cl)cc1 (stereo partly shown) | – | – | – | 6.1 µM | 6.15 µM | GI50 (MCF7): 10.9 µM; GI50 (MCF10a; Homo sapiens, MCF-10A): > 20 µM
7 | CC(C)(C)[C@@H]1C=C(C(=O)O)[C@H](c2ccc(Cl)cc2)N1S(=O)(=O)C(C)(C)C | – | 28.9 µM | – | 5.36 µM | > 20 µM | –
8 | CC(C)C[C@H](NC(=O)C1=CC[C@@H](c2cccc(Br)c2)N(S(=O)(=O)c2ccc(F)cc2)[C@H]1c1cccc(Cl)c1)C(N)=O [P61-D03] | 6.9 µM | 6.9 µM | 0.32 µM | 0.32 µM | 1.7 µM | –
9 | Cc1ccccc1S(=O)(=O)N1[C@@H](c2ccc(Cl)cc2)C(C(N)=O)=C[C@H]1C(C)(C)C | 1.6 µM | – | 11 µM | – | – | GI50 (K562 cells; Homo sapiens, K562, Table 7): 4.8 µM
10 | CC(C)C[C@H](NC(=O)C1=CC[C@@H](c2cccc(Br)c2)N(S(=O)(=O)c2ccc(Cl)cc2)C1c1cccc(Cl)c1)C(N)=O (stereo partly shown) | – | – | – | 3.15 µM | 7.06 µM | GI50 (MCF7): 3.43 µM; GI50 (MCF10a; Homo sapiens, MCF-10A): 14.2 µM
11 | Cc1ccccc1S(=O)(=O)N1C(c2cccc(Cl)c2)C(CO)=CC[C@H]1c1ccc(Cl)cc1 (stereo partly shown) | – | > 100 µM | – | 7.5 µM | 5.8 µM | –
12 | Cc1ccccc1S(=O)(=O)N1[C@@H](c2ccc(Cl)cc2)C(COCC(=O)N[C@@H](Cc2ccccc2)C(N)=O)=C[C@H]1C(C)(C)C | – | 0.7 µM | – | 1.3 µM | 5 µM | –
13 | CC(C)C[C@H](NC(=O)C1=CC[C@@H](c2cccc(Cl)c2)N(S(=O)(=O)c2ccc(Br)cc2)C1c1cccc(Br)c1)C(N)=O (stereo partly shown) [P61-C09] | > 50 µM | > 50 µM | – | – | – | GI50 (Jurkat cells; [8]): 6.38 µM; GI50 (Jurkat cells; Tables 8-15, no unit printed there, listed as P61C9, read-out: Jurkat GI50): 6.38 µM; GI50 (K562 cells; Tables 8-15, no unit printed there, listed as P61C9): 12.9 µM
14 | CC(C)C[C@H](NC(=O)C1=CC[C@@H](c2cccc(Br)c2)N(S(=O)(=O)c2ccc(F)cc2)C1c1cccc(Cl)c1)C(N)=O (stereo partly shown) [P61-C11] | 32.9 µM | 32.9 µM | 1.76 µM | 1.76 µM | 10.2 µM | –
15 | CC(C)C[C@H](NC(=O)C1=CC[C@@H](c2cccc(Cl)c2)N(S(=O)(=O)c2ccc(Br)cc2)C1c1cccc(Br)c1)C(N)=O (stereo partly shown) [P61-C10] | – | – | – | – | – | GI50 (Jurkat cells; [8]): 2.22 µM; GI50 (Jurkat cells; [6]): 2.22 µM; GI50 (K562 cells; [7]): 4.37 µM
16 | NC(=O)[C@H](Cc1ccccc1)NC(=O)C1=CC[C@@H](c2cccc(Br)c2)N(S(=O)(=O)c2ccc(Cl)cc2)C1c1cccc(Cl)c1 (stereo partly shown) [P61-D04] | 1.3 µM | 1.3 µM | 4.86 µM | 4.86 µM | 7.69 µM | –
17 | Cc1ccccc1S(=O)(=O)N1[C@@H](c2ccc(Cl)cc2)C(CO)=C[C@H]1C(C)(C)C | 2.2 µM | – | 5.8 µM | – | – | GI50 (K562 cells; Homo sapiens, K562, Table 7): 6 µM
18 | NC(=O)[C@H](Cc1ccccc1)NC(=O)C1=CC[C@@H](c2cccc(Cl)c2)N(S(=O)(=O)c2ccc(Cl)cc2)C1c1cccc(Cl)c1 (stereo partly shown) [P61-D02] | – | – | 1.96 µM | 1.96 µM | 4.33 µM | IC50 (GGTase-I; Tables 5, 14, read-out: In vitro (enzyme assay) IC50, GGTase I): 0.6 µM
19 | Cc1ccccc1S(=O)(=O)N1[C@@H](c2ccc(Cl)cc2)C(COCC(=O)N[C@@H](Cc2ccccc2)C(=O)O)=C[C@H]1C(C)(C)C | – | 0.1 µM | – | 12 µM | 17 µM | –

The next lines start with results.

Row | IC50 (GGTase-I; [1]) | IC50 (GGTase-I; [2]) | GI50 (Jurkat cells; [3]) | GI50 (Jurkat cells; [4]) | GI50 (K562 cells; [5]) | SMILES | further results
20 | > 50 µM | > 50 µM | 4.91 µM | 4.91 µM | 3.63 µM | CC(C)(C)[C@@H]1C=C(C(=O)N[C@@H](Cc2ccccc2)C(N)=O)[C@H](c2ccc(Cl)c(Cl)c2)N1S(=O)(=O)c1c(Cl)cccc1Cl [P61-D09] | –
21 | > 50 µM | > 50 µM | 5.91 µM | 5.91 µM | 5.9 µM | CC(C)(C)[C@@H]1C=C(C(=O)N[C@@H](Cc2ccccc2)C(N)=O)[C@H](c2ccc(Cl)c(Cl)c2)N1S(=O)(=O)C(C)(C)C [P61-D11] | –
22 | > 20 µM | > 20 µM | – | – | – | NC(=O)[C@H](Cc1ccccc1)NC(=O)C1=CC[C@@H](c2cccc(Br)c2)N(S(=O)(=O)c2ccc(Cl)cc2)C1c1cccc(Cl)c1 (stereo partly shown) [P61-D05] | GI50 (Jurkat cells; [8]): 3.57 µM; GI50 (Jurkat cells; Tables 8-15, no unit printed there, listed as P61D5, read-out: Jurkat GI50): 3.57 µM; GI50 (K562 cells; Tables 8-15, no unit printed there, listed as P61D5): 10.3 µM
23 | – | 1.4 µM | – | 13 µM | 20 µM | Cc1ccccc1S(=O)(=O)N1[C@@H](c2ccc(Cl)cc2)C(C(=O)N[C@@H](Cc2ccccc2)C(=O)O)=C[C@H]1C(C)(C)C [drawing 152] | –
24 | 2.7 µM | 2.7 µM | – | – | – | CC(C)(C)[C@@H]1C=C(C(=O)N[C@@H](Cc2ccccc2)C(N)=O)[C@H](c2ccc(Cl)c(Cl)c2)N1S(=O)(=O)C(C)(C)C [P61-E02] | GI50 (Jurkat cells; [8]): 4.57 µM; GI50 (Jurkat cells; Tables 8-15, no unit printed there, listed as P61E2, read-out: Jurkat GI50): 4.57 µM; GI50 (K562 cells; Tables 8-15, no unit printed there, listed as P61E2): 4.22 µM
